Earlier results as cited in patent publication US20070203145A1, “ZOPICLONE RESOLUTION” (priority 2006, published 2007).

Assays:
[1] = compared with racemic zopiclone; per U.S. Pat. No. 6,444,673
[2] = compared with racemic zopiclone; per U.S. Pat. No. 6,444,673; remark: listed apart in the source

Structure (SMILES): CN1CCN(C(=O)O[C@H]2c3nccnc3C(=O)N2c2ccc(Cl)cn2)CC1 [S-zopiclone, Eszopiclone]
- toxicity relative to the racemic mixture [1]: less toxicity
- activity relative to the racemic mixture [2]: twice the activity of the racemic mixture
